The test system of one series is ANBL-6 cells. As to the kind of experiment: MTT cell proliferation assay. It is filed as cell-based. To be noted: Homo sapiens, 72-hour MTT. As to the method: (§1) The MTT cell proliferation assay was used to study the cytotoxic properties of the compounds. The assay was performed according to the method described by Roche Molecular Biochemicals, with minor modifications. The assay is based on the cleavage of the tetrazolium salt, MTT, in the presence of an electron-coupling reagent. The water-insoluble formazan salt produced must be solubilized in an additional step. Cells grown in a 96-well tissue culture plate were incubated with the MTT solution for approximately 4 hours. After this incubation period, a water-insoluble formazan dye formed. After solubilization, the formazan dye was quantitated using a scanning multi-well spectrophotometer (ELISA reader). […] The cells were seeded at 5,000-10,000 cells in each well of 96-well plate in 100 μL of fresh culture medium and were allowed to attach overnight. The stock solutions of the compounds were diluted in 100 μL cell culture medium to obtain eight concentrations of each test compound, ranging from 1 nM to 30 μM. […] All optical densities were measured at 490 nm using a Vmax Kinetic Microplate Reader (Molecular Devices). In most cases, the assay was performed in duplicate and the results were presented as a mean percent inhibition to the negative control±SE. The following formula was used to calculate the percent of inhibition: Inhibition (%)=(1−(ODo/OD))×100.
(§2) Compounds 504, 510, 525 and 585 were further tested against selected solid and hematological cancer cell lines and selected normal cell lines in a 72-hour MTT cell proliferation assay.

The test system of a further series is SW-837 cells. As to the kind of experiment: MTT cell proliferation assay. It is filed as cell-based. Particulars: Homo sapiens, SW837, 72-hour MTT. The method, then:
as §1, §2
(Tetrazolium dyes change colour on reduction, which living cells bring about.)

The test system of the next series is Hs578T cells. As to the kind of experiment: MTT cell proliferation assay. It is filed as cell-based. Particulars: Homo sapiens, Hs-578T, 72-hour MTT. As to the method:
as §1, §2

For a further series, the system named is NCI-H747 cells. As to the kind of experiment: MTT cell proliferation assay. It is filed as cell-based. Particulars: Homo sapiens, 72-hour MTT. As to the method:
as §1, §2

The next series relates to TF-1 cells. As to the kind of experiment: MTT cell proliferation assay. Particulars: Homo sapiens, 72-hour MTT. It is filed as cell-based. As to the method:
as §1, §2

The next series deals with MM1R cells. As to the kind of experiment: MTT cell proliferation assay. It is filed as cell-based. Particulars: MM.1R, 72-hour MTT. As to the method: as §1, §2
The next series relates to LN18 cells. In words: MTT cell proliferation assay. It is filed as cell-based. Particulars: Homo sapiens, LN-18, 72-hour MTT. The method, then: as §1, §2
The next series has as its system K562 cells. As to the kind of experiment: MTT cell proliferation assay. It is filed as cell-based. To be noted: Homo sapiens, 72-hour MTT. As to the method:
as §1, §2

The test system of the next series is Farage cells. As to the kind of experiment: MTT cell proliferation assay. It is filed as cell-based. To be noted: 72-hour MTT. The method, then:
as §1, §2

The subject of the next series is SKOV3 cells. In words: MTT cell proliferation assay. It is filed as cell-based. Particulars: Homo sapiens, SK-OV-3, 72-hour MTT. The method, then: as §1, §2
In the next series the test system is CaOV3 cells. In words: MTT cell proliferation assay. It is filed as cell-based. To be noted: Homo sapiens, Caov-3, 72-hour MTT. The method, then: as §1, §2
The next series relates to MCF7 cells. As to the kind of experiment: MTT cell proliferation assay. Particulars: Homo sapiens, 72-hour MTT. It is filed as cell-based. The method, then:
as §1, §2

The test system of another series is SW-900 cells. In words: MTT cell proliferation assay. It is filed as cell-based. To be noted: Homo sapiens, SW900, 72-hour MTT. The method, then:
as §1, §2

In another series the test system is DoHH-2 cells. In words: MTT cell proliferation assay. It is filed as cell-based. To be noted: Homo sapiens, 72-hour MTT. As to the method:
as §1, §2

Another series has as its system MO7e cells. In words: MTT cell proliferation assay. It is filed as cell-based. To be noted: 72-hour MTT. The method, then:
as §1, §2

The test system of a further series is HEP 3B cells. In words: MTT cell proliferation assay. It is filed as cell-based. To be noted: Homo sapiens, Hep3B; HEP 3B cells; 72-hour MTT; read-out: HEP 3B MTT IC50.
For a further series, the system named is RPMI8226 cells. In words: MTT cell proliferation assay. To be noted: Homo sapiens, RPMI-8226; RPMI8226 cells; 72-hour MTT; read-out: RPMI8226 MTT IC50. It is filed as cell-based.
The test system of a further series is Hep G2 cells. As to the kind of experiment: MTT cell proliferation assay. Particulars: Homo sapiens, HepG2; Hep G2 cells; 72-hour MTT; read-out: Hep G2 MTT IC50. It is filed as cell-based.
The test system of a further series is HL-60 cells. As to the kind of experiment: MTT cell proliferation assay. It is filed as cell-based. Particulars: Homo sapiens; HL-60 cells; 72-hour MTT; read-out: HL-60 MTT IC50.
The next series has as its system MDA-MB-468 xenografts. In words: MDA-MB-468 (triple negative breast cancer) xenograft in CB-17 SCID mice. It is filed as in vivo, mouse. Particulars: for mean tumor volume of MDA-MB-468 xenografts: CB-17 SCID mice, 15 mg/kg PO once daily Monday through Friday; for toxicity (side effects, weight loss): MDA-MB-468 xenograft model, minimal or no side effects or weight loss up to 200 mg/kg daily dose. As to the method:
The oncological impact of Compound 504 and Compound 510 were tested using a MDA-MB-468 (triple negative breast cancer) xenograft model in CB-17 SCID mice. MDA-MB-468 (ATCC #HTB-102) breast adenocarcinoma cells were obtained from ATCC. The cells were grown in high glucose DMEM supplemented with 10% fetal bovine serum, 1% penicillin and streptomycin, and 2 mM L-glutamine. Cells were sub-cultured by dilution at a ratio of 1:4. MDA-MB-468 cells were harvested by trypsinization and counted using a hemocytometer. Cells were resuspended in PBS at a 4×10^8 cells per mL. Cells were placed on ice and mixed with an equal volume of Matrigel (BD Biosciences CB-40234). Thirty-two (32) CB-17 SCID mice were inoculated sub-cutaneously in the left flank with 4×10^7 MDA-MB-468 cells. Treatment was initiated when the tumors reached a mean volume of about 100 mm^3. Mice were allocated to four (4) groups of eight (8) mice such that mean tumor volume was about 100 mm^3 in each group. Mice were treated with vehicle, standard of care/positive control drug (paclitaxel), Compound 504 or Compound 510. Compound 504 (15 mg/kg) and Compound 510 (15 mg/kg) were given orally (PO) once daily on Monday through Friday each week. Animals' weights and condition were recorded daily, and tumors were measured on Mondays, Wednesdays, and Fridays.

pIC50: −log10 of the molar value.

As usually defined, the pIC50 is the IC50 on a negative log10 scale, so that one unit is a factor of ten. Turning to `Nc1ccc(/C=C/C(=O)NCc2cc3cc(-c4ccc(C(=O)N5CCC(F)(F)CC5)cn4)cc(C(F)(F)F)c3o2)cn1` [Compound 585, (E)-3-(6-aminopyridin-3-yl)-N-((5-(5-(4,4-difluoropiperidine-1-carbonyl)pyridin-2-yl)-7-(trifluoromethyl)benzofuran-2-yl)methyl)acrylamide], the pIC50 with ANBL-6 cells was 6.00; with SW-837 cells, 6.22; in the series with Hs578T cells, 6.60; in the series on NCI-H747 cells, 6.23; in the series on TF-1 cells, 7.22; in the series with MM1R cells, 6.72. Moreover, the pIC50 was 5.78 in the series with LN18 cells; 5.96 in the series on K562 cells; 7.15 in the series with Farage cells; less than 5.00 in the series on SKOV3 cells; 5.65 in the series with CaOV3 cells; 6.15 with MCF7 cells. In addition, the pIC50 in the series on SW-900 cells was less than 5.00; in the series with DoHH-2 cells it was 7.05; in the series with MO7e cells, 7.70; in the series on HEP 3B cells, 7.15; with RPMI8226 cells it was 6.82; in the series on Hep G2 cells, 6.80. For the same compound, the pIC50 in the series on HL-60 cells is 6.68.
Consider `Nc1ccc(/C=C/C(=O)NCc2cc3cc(-c4ccc(S(=O)(=O)N5CCOCC5)cc4)cc(Cl)c3o2)cn1` [Compound 504, (E)-3-(6-Aminopyridin-3-yl)-N-((7-chloro-5-(4-(morpholinosulfonyl)phenyl)benzofuran-2-yl)methyl)acrylamide], for which, in the series with MDA-MB-468 xenografts, the “mean tumor volume of MDA-MB-468 xenografts” value is reported as “tumor growth inhibition” and the “toxicity (side effects, weight loss)” value is listed as “without major toxicity”.
For `Nc1ccc(/C=C/C(=O)NCc2cc3cc(-c4ccc(C(=O)N5CCOCC5)cc4)cc(C(F)(F)F)c3o2)cn1` [Compound 510, (E)-3-(6-aminopyridin-3-yl)-N-((5-(4-(morpholine-4-carbonyl)phenyl)-7-(trifluoromethyl)benzofuran-2-yl)methyl)acrylamide] the same measures were “tumor growth inhibition” and “without major toxicity”.
